Data as given in patent US10730863B2, “Bridged bicyclic compounds as farnesoid X receptor modulators” (BRISTOL-MYERS SQUIBB COMPANY, priority 2017, dated 2020).

Molecular target: FXR (Homo sapiens (Human), UniProt Q96RI1)
Assay: FXR EC50 (FXR agonist activity reported with each example)
Assay type: cell-based

FXR, sequence (Q96RI1 262-486): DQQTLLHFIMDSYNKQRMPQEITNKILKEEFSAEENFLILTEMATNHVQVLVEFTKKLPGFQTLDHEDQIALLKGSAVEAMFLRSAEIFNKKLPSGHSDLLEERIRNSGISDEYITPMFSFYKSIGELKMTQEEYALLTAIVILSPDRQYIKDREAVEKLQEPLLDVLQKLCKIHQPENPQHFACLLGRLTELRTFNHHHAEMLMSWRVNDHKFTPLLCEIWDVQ

| Compound | EC50 |
| --- | --- |
| O=C(O)c1cc(C(F)(F)F)cc2nc(C34CCC(OCc5c(C(C6CC6)C6CC6)noc5C5CC5)(CC3)CC4)ccc12 [Example 423, 2-(4-((5-cyclopropyl-3-(dicyclopropylmethyl)isoxazol-4-yl)methoxy)bicyclo[2.2.2]octan-1-yl)-7-(trifluoromethyl)quinoline-5-carboxylic acid] | 67 nM |
| O=C(O)c1ccc(C2CC2)c2nc(C34CCC(OCc5c(C(C6CC6)C6CC6)noc5C5CC5)(CC3)CC4)ccc12 [Example 424] | 500 nM |
| CC1(c2noc(C3CC3)c2COC23CCC(c4ccc5c(C(=O)O)cccc5n4)(CC2)CC3)CC1(F)F (stereo not shown) [Example 425, 2-(4-((5-cyclopropyl-3-(2,2-difluoro-1-methylcyclopropyl)isoxazol-4-yl)methoxy)bicyclo[2.2.2]octan-1-yl)quinoline-5-carboxylic acid] | 3400 nM |
| COc1cc(Cl)c2nc(C34CCC(OCc5c(-c6c(Cl)cncc6Cl)noc5C5CC5)(CC3)CC4)ccc2c1C(=O)O [Example 426, 8-chloro-2-(4-((5-cyclopropyl-3-(3,5-dichloropyridin-4-yl)isoxazol-4-yl)methoxy)bicyclo[2.2.2]octan-1-yl)-6-methoxyquinoline-5-carboxy c acid] | 12 nM |
| CC(C)Oc1cc(Cl)c2nc(C34CCC(OCc5c(-c6c(Cl)cncc6Cl)noc5C5CC5)(CC3)CC4)ccc2c1C(=O)O [Example 427] | 5 nM |
| COc1ccc2nc(C34CCC(OCc5c(-c6c(Cl)cncc6Cl)noc5C5CC5)(CC3)CC4)ccc2c1C(=O)O [Example 428] | 120 nM |
| O=C(O)c1c(OC2CCC2)cc(Cl)c2nc(C34CCC(OCc5c(-c6c(Cl)cncc6Cl)noc5C5CC5)(CC3)CC4)ccc12 [Example 429] | 4 nM |
| O=C(O)c1cc(C(F)(F)F)c2cc(CCC34CCC(OCc5c(-c6c(Cl)cncc6Cl)noc5C5CC5)(CC3)CC4)ccc2n1 [Example 430, 6-(2-(4-((5-cyclopropyl-3-(3,5-dichloropyridin-4-yl)isoxazol-4-yl)methoxy)bicyclo[2.2.2]octan-1-yl)ethyl)-4-(trifluoromethyl)quinoline-2-carboxylic acid] | 24 nM |
| O=C(O)c1cccc2nc(C34CCC(OCc5c(-c6c(Cl)cncc6Cl)noc5C5CC5)(CC3)CC4)sc12 [Example 432, 2-(4-((5-cyclopropyl-3-(3,5-dichloropyridin-4-yl)isoxazol-4-yl)methoxy)bicyclo[2.2.2]octan-1-yl)benzo[d]thiazole-7-carboxylic acid] | 23 nM |
| O=C(O)c1cc(NC(=O)C23CCC(OCc4c(-c5c(Cl)cncc5Cl)noc4C4CC4)(CC2)CC3)cc(C(F)(F)F)c1 [Example 433, 3-(4-((5-cyclopropyl-3-(3,5-dichloropyridin-4-yl)isoxazol-4-yl)methoxy)bicyclo[2.2.2]octane-1-carboxamido)-5-(trifluoromethyl)benzoic acid] | 1300 nM |
| O=C(O)c1cc(C(F)(F)F)cc2nc(C34CCC(OCc5c(-c6c(Cl)cncc6Cl)noc5C5CC5)(CC3)CC4)sc12 [Example 434, 2-(4-((5-cyclopropyl-3-(3,5-dichloropyridin-4-yl)isoxazol-4-yl)methoxy)bicyclo[2.2.2]octan-1-yl)-5-(trifluoromethyl)benzo[d]thiazole-7-carboxylic acid] | 18 nM |
| NC(=O)c1cc(C(F)(F)F)cc2nc(C34CCC(OCc5c(-c6c(Cl)cncc6Cl)noc5C5CC5)(CC3)CC4)sc12 [Example 435, 2-(4-((5-cyclopropyl-3-(3,5-dichloropyridin-4-yl)isoxazol-4-yl)methoxy)bicyclo[2.2.2]octan-1-yl)-5-(trifluoromethyl)benzo[d]thiazole-7-carboxamide] | 460 nM |
| O=C(O)c1cc(-c2noc(C34CCC(/C=C/c5c(-c6c(Cl)cncc6Cl)noc5C5CC5)(CC3)CC4)n2)cc(C(F)(F)F)c1 [Example 436, (E)-3-(5-(4-(2-(5-cyclopropyl-3-(3,5-dichloropyridin-4-yl)isoxazol-4-yl)vinyl)bicyclo[2.2.2]octan-1-yl)-1,2,4-oxadiazol-3-yl)-5-(trifluoromethyl)benzoic acid] | 18 nM |
| COc1ccc(-c2noc(C34CCC(/C=C/c5c(-c6c(Cl)cncc6Cl)noc5C5CC5)(CC3)CC4)n2)cc1C(=O)O [Example 437, (E)-5-(5-(4-(2-(5-cyclopropyl-3-(3,5-dichloropyridin-4-yl)isoxazol-4-yl)vinyl)bicyclo[2.2.2]octan-1-yl)-1,2,4-oxadiazol-3-yl)-2-methoxybenzoic acid] | 23 nM |
| COc1ccc(-c2noc(C34CCC(/C=C/c5c(-c6c(Cl)cncc6Cl)noc5C5CC5)(CC3)CC4)n2)cc1C(=O)NS(C)(=O)=O [Example 438, (E)-5-(5-(4-(2-(5-cyclopropyl-3-(3,5-dichloropyridin-4-yl)isoxazol-4-yl)vinyl)bicyclo[2.2.2]octan-1-yl)-1,2,4-oxadiazol-3-yl)-2-methoxy-N-(methylsulfonyl)benzamide] | 33 nM |
| COc1ccc(-c2noc(C34CCC(/C=C/c5c(-c6c(Cl)cncc6Cl)noc5C5CC5)(CC3)CC4)n2)cc1C(=O)NS(=O)(=O)C1CC1 [Example 439, (E)-5-(5-(4-(2-(5-cyclopropyl-3-(3,5-dichloropyridin-4-yl)isoxazol-4-yl)vinyl)bicyclo[2.2.2]octan-1-yl)-1,2,4-oxadiazol-3-yl)-N-(cyclopropylsulfonyl)-2-methoxybenzamide] | 280 nM |
| CS(=O)(=O)NC(=O)c1cc(-c2noc(C34CCC(/C=C/c5c(-c6c(Cl)cncc6Cl)noc5C5CC5)(CC3)CC4)n2)cc(C(F)(F)F)c1 [Example 440, (E)-3-(5-(4-(2-(5-cyclopropyl-3-(3,5-dichloropyridin-4-yl)isoxazol-4-yl)vinyl)bicyclo[2.2.2]octan-1-yl)-1,2,4-oxadiazol-3-yl)-N-(methylsulfonyl)-5-(trifluoromethyl)benzamide] | 400 nM |
| NC(=O)c1cc(-c2noc(C34CCC(/C=C/c5c(-c6c(Cl)cncc6Cl)noc5C5CC5)(CC3)CC4)n2)cc(C(F)(F)F)c1 [Example 441, (E)-3-(5-(4-(2-(5-cyclopropyl-3-(3,5-dichloropyridin-4-yl)isoxazol-4-yl)vinyl)bicyclo[2.2.2]octan-1-yl)-1,2,4-oxadiazol-3-yl)-5-(trifluoromethyl)benzamide] | 150 nM |
| O=C(O)c1cc(F)cc(-c2noc(C34CCC(/C=C/c5c(-c6c(Cl)cncc6Cl)noc5C5CC5)(CC3)CC4)n2)c1 [Example 442, (E)-3-(5-(4-(2-(5-cyclopropyl-3-(3,5-dichloropyridin-4-yl)isoxazol-4-yl)vinyl)bicyclo[2.2.2]octan-1-yl)-1,2,4-oxadiazol-3-yl)-5-fluorobenzoic acid] | 79 nM |
| COC(=O)c1cc(OC(F)F)cc(-c2noc(C34CCC(/C=C/c5c(-c6c(Cl)cncc6Cl)noc5C5CC5)(CC3)CC4)n2)c1 [Example 443, (E)-methyl 3-(5-(4-(2-(5-cyclopropyl-3-(3,5-dichloropyridin-4-yl)isoxazol-4-yl)vinyl)bicyclo[2.2.2]octan-1-yl)-1,2,4-oxadiazol-3-yl)-5-(difluoromethoxy)benzoate] | 49 nM |
| O=C(O)c1cc(OCC23CCC(/C=C/c4c(-c5c(Cl)cncc5Cl)noc4C4CC4)(CC2)CC3)cc(OC(F)F)c1 [Example 444, (E)-3-((4-(2-(5-cyclopropyl-3-(3,5-dichloropyridin-4-yl)isoxazol-4-yl)vinyl)bicyclo[2.2.2]octan-1-yl)methoxy)-5-(difluoromethoxy)benzoic acid] | 16 nM |
| O=C(O)c1cc(-c2noc(C34CCC(/C=C/c5c(-c6c(Cl)cncc6Cl)noc5C5CC5)(CC3)CC4)n2)ccc1OC(F)F [Example 446, (E)-5-(5-(4-(2-(5-cyclopropyl-3-(3,5-dichloropyridin-4-yl)isoxazol-4-yl)vinyl)bicyclo[2.2.2]octan-1-yl)-1,2,4-oxadiazol-3-yl)-2-(difluoromethoxy)benzoic acid] | 350 nM |
| Cc1cc(OCC23CCC(/C=C/c4c(-c5c(Cl)cncc5Cl)noc4C4CC4)(CC2)CC3)c2cc(C(=O)O)cc(F)c2n1 [Example 447, (E)-4-((4-(2-(5-cyclopropyl-3-(3,5-dichloropyridin-4-yl)isoxazol-4-yl)vinyl)bicyclo[2.2.2]octan-1-yl)methoxy)-8-fluoro-2-methylquinoline-6-carboxylic acid] | 2400 nM |
| COc1c(C(=O)O)cccc1-c1noc(C23CCC(/C=C/c4c(-c5c(Cl)cncc5Cl)noc4C4CC4)(CC2)CC3)n1 [Example 448, (E)-3-(5-(4-(2-(5-cyclopropyl-3-(3,5-dichloropyridin-4-yl)isoxazol-4-yl)vinyl)bicyclo[2.2.2]octan-1-yl)-1,2,4-oxadiazol-3-yl)-2-methoxybenzoic acid] | 10 nM |
| COc1cc(C(=O)O)ccc1OCC12CCC(/C=C/c3c(-c4c(Cl)cncc4Cl)noc3C3CC3)(CC1)CC2 [Example 450, (E)-4-((4-(2-(5-cyclopropyl-3-(3,5-dichloropyridin-4-yl)isoxazol-4-yl)vinyl)bicyclo[2.2.2]octan-1-yl)methoxy)-3-methoxybenzoic acid] | 18 nM |
| O=C(O)c1cc(OC(F)F)c2cc(OCC34CCC(/C=C/c5c(-c6c(Cl)cncc6Cl)noc5C5CC5)(CC3)CC4)ccc2n1 [Example 451, (E)-6-((4-(2-(5-cyclopropyl-3-(3,5-dichloropyridin-4-yl)isoxazol-4-yl)vinyl)bicyclo[2.2.2]octan-1-yl)methoxy)-4-(difluoromethoxy)quinoline-2-carboxylic acid] | 35 nM |
| O=C(O)c1cc(C(F)(F)F)c2cc(OCC34CCC(/C=C/c5c(-c6c(Cl)cncc6Cl)noc5C5CC5)(CC3)CC4)ccc2n1 [Example 452, (E)-6-((4-(2-(5-cyclopropyl-3-(3,5-dichloropyridin-4-yl)isoxazol-4-yl)vinyl)bicyclo[2.2.2]octan-1-yl)methoxy)-4-(trifluoromethyl)quinoline-2-carboxylic acid] | 14 nM |
| O=C(O)c1cccc2nc(C34CCC(OCc5c(-c6c(Cl)cccc6Cl)noc5C5CC5)(CC3)CO4)sc12 [Example 454, 2-(4-((5-cyclopropyl-3-(2,6-dichlorophenyl)isoxazol-4-yl)methoxy)-2-oxabicyclo[2.2.2]octan-1-yl)benzo[d]thiazole-7-carboxylic acid] | 680 nM |
